Measurements published in patent US6737383B1, “Herbicidal oxadiazolidines” (priority 1999, dated 2004).

Tests used:
[1] = system: blackgrass; test: Test B pre/postemergence blackgrass; type: in vivo, Alopecurus myosuroides
How it was run: (§1)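 Response is a visual 0-to-10 score relative to untreated plants, where 0 means no effect and 10 means complete control, taken twelve to sixteen days after application. Treatments went onto soil at planting and onto foliage of 1- to 4-leaf plants, using a surfactant-containing non-phytotoxic solvent.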

[2] = system: bedstraw; test: Test B pre/postemergence bedstraw; type: in vivo, Galium aparine
How it was run: as §1

[3] = system: wheat; test: Test B pre/postemergence wheat; type: in vivo, Triticum aestivum
How it was run: as §1

[4] = system: bamyardgrass; test: Test B flood test barnyardgrass; type: in vivo, Echinochloa crus-galli
How it was run: (§2)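 Each value is a visual injury score relative to controls, with 10 meaning complete control and 0 no effect. Evaluation took place twelve to sixteen days after the 2-leaf-stage plants were treated and kept in the greenhouse.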

[5] = system: velvetleaf; test: Test B pre/postemergence velvetleaf; type: in vivo, Abutilon theophrasti
How it was run: as §1

[6] = system: giant foxtail; test: Test B pre/postemergence giant foxtail; type: in vivo, Setaria faberii
How it was run: as §1

[7] = system: soybean; test: Test B pre/postemergence soybean; type: in vivo, Glycine max
How it was run: as §1

[8] = system: rice; test: Test B flood test rice; type: in vivo, Oryza sativa
How it was run: as §2

[9] = system: wild oat; test: Test B pre/postemergence wild oat; type: in vivo, Avena fatua
How it was run: as §1

[10] = system: cocklebur; test: Test B pre/postemergence cocklebur; type: in vivo, Xanthium strumarium
How it was run: as §1

[11] = system: corn; test: Test B pre/postemergence corn; type: in vivo, Zea mays
How it was run: as §1

[12] = system: morningglory; test: Test B pre/postemergence morningglory; type: in vivo, Ipomoea hederacea
How it was run: as §1

[13] = system: pigweed; test: Test B pre/postemergence pigweed; type: in vivo, Amaranthus retroflexus
How it was run: as §1

[14] = system: surinam grass; test: Test B pre/postemergence surinam grass; type: in vivo, Brachiaria decumbens
How it was run: as §1

[15] = system: smallflower flatsedge; test: Test B flood test smallflower flatsedge; type: in vivo, Cyperus difformis
How it was run: as §2

[16] = system: crabgrass; test: Test B pre/postemergence crabgrass; type: in vivo, Digitaria sanguinalis
How it was run: as §1

[17] = Preemergence, Rate 62 g/ha, scale of 0 to 10 where 0 is no effect and 10 is complete control
[18] = Preemergence, Rate 125 g/ha, 0 is no effect, 10 is complete control
[19] = Preemergence, Rate 250 g/ha, scale 0 to 10, 0 is no effect, 10 is complete control
[20] = Preemergence, Rate 500 g/ha, scale of 0 to 10 where 0 is no effect and 10 is complete control
[21] = Rate 62 g/ha, Postemergence, scale of 0 to 10 where 0 is no effect and 10 is complete control
[22] = Rate 125 g/ha, Postemergence, scale 0 to 10
[23] = Rate 500 g/ha, Postemergence, scale 0 to 10
[24] = Rate 62 g/ha, headed Pre-emergence (flood test species), scale 0 to 10 (0 no effect, 10 complete control)
[25] = Rate 125 g/ha, Pre-emergence, flood test species, scale 0 to 10 where 0 is no effect and 10 is complete control
[26] = Rate 250 g/ha, Pre-emergence, flood-test species, scale 0 to 10, 0 is no effect, 10 is complete control
[27] = Rate 500 g/ha, Pre-emergence, flood test species, scale 0 to 10 (0 no effect, 10 complete control)

CC(C)N(C(=O)n1oc(=O)n(Cc2ccco2)c1=O)c1ccc(F)cc1F [Compound 208]
2: Giant foxtail plant response rating [6, 17] | Plant response rating (0 to 10; 0 is no effect, 10 is complete control), Soybean ([7]; Rate 250 g/ha, Postemergence) | Soybean plant response rating [7, 23] | Plant response rating, Redroot pigweed [13, 20]
4: Crabgrass plant response rating [16, 17]
0: Blackgrass plant response rating [1, 17] | Blackgrass plant response rating (0 to 10 scale) [1, 18] | Blackgrass plant response rating [1, 19] | Blackgrass plant response rating [1, 21] | Blackgrass plant response rating [1, 22] | Plant response rating (0 to 10; 0 is no effect, 10 is complete control), Blackgrass ([1]; Rate 250 g/ha, Postemergence) | Bedstraw plant response rating [2, 17] | Bedstraw plant response rating (0 to 10 scale) [2, 18] | Bedstraw plant response rating [2, 19] | Plant response rating, Bedstraw [2, 20] | Bedstraw plant response rating [2, 21] | Bedstraw plant response rating [2, 22] | Plant response rating (0 to 10; 0 is no effect, 10 is complete control), Bedstraw ([2]; Rate 250 g/ha, Postemergence) | Wheat plant response rating [3, 17] | Wheat plant response rating [3, 19] | Plant response rating, Wheat [3, 20] | Wheat plant response rating [3, 21] | Wheat plant response rating [3, 22] | Plant response rating (0 to 10; 0 is no effect, 10 is complete control), Wheat ([3]; Rate 250 g/ha, Postemergence) | Barnyardgrass plant response rating [4, 24] | Barnyardgrass plant response rating [4, 25] | Barnyardgrass plant response rating [4, 26] | Barnyardgrass plant response rating [4, 27] | Velvetleaf plant response rating [5, 17] | Velvetleaf plant response rating [5, 19] | Giant foxtail plant response rating [6, 21] | Giant foxtail plant response rating [6, 22] | Plant response rating (0 to 10; 0 is no effect, 10 is complete control), Giant foxtail ([6]; Rate 250 g/ha, Postemergence) | Soybean plant response rating [7, 17] | Soybean plant response rating (0 to 10 scale) [7, 18] | Soybean plant response rating [7, 19] | Plant response rating, Soybean [7, 20] | Rice plant response rating [8, 24] | Rice plant response rating [8, 25] | Rice plant response rating [8, 26] | Rice plant response rating [8, 27] | Wild oats plant response rating [9, 17] | Wild oats plant response rating [9, 19] | Wild oats plant response rating [9, 21] | Wild oats plant response rating [9, 22] | Plant response rating (0 to 10; 0 is no effect, 10 is complete control), Wild oats ([9]; Rate 250 g/ha, Postemergence) | Cocklebur plant response rating [10, 17] | Cocklebur plant response rating (0 to 10 scale) [10, 18] | Cocklebur plant response rating [10, 19] | Plant response rating, Cocklebur [10, 20] | Cocklebur plant response rating [10, 21] | Cocklebur plant response rating [10, 22] | Plant response rating (0 to 10; 0 is no effect, 10 is complete control), Cocklebur ([10]; Rate 250 g/ha, Postemergence) | Cocklebur plant response rating [10, 23] | Corn plant response rating [11, 17] | Corn plant response rating (0 to 10 scale) [11, 18] | Corn plant response rating [11, 19] | Plant response rating, Corn [11, 20] | Corn plant response rating [11, 21] | Corn plant response rating [11, 22] | Plant response rating (0 to 10; 0 is no effect, 10 is complete control), Corn ([11]; Rate 250 g/ha, Postemergence) | Corn plant response rating [11, 23] | Morningglory plant response rating [12, 17] | Morningglory plant response rating (0 to 10 scale) [12, 18] | Morningglory plant response rating [12, 19] | Plant response rating, Morningglory [12, 20] | Redroot pigweed plant response rating [13, 17] | Redroot pigweed plant response rating (0 to 10 scale) [13, 18] | Redroot pigweed plant response rating [13, 19] | Redroot pigweed plant response rating [13, 21] | Redroot pigweed plant response rating [13, 22] | Plant response rating (0 to 10; 0 is no effect, 10 is complete control), Redroot pigweed ([13]; Rate 250 g/ha, Postemergence) | Redroot pigweed plant response rating [13, 23] | B. signalgrass plant response rating [14, 17] | B. signalgrass plant response rating (0 to 10 scale) [14, 18] | B. signalgrass plant response rating [14, 19] | Plant response rating, B. signalgrass [14, 20] | B. signalgrass plant response rating [14, 21] | B. signalgrass plant response rating ([14]; Rate 125 g/ha, Postemergence, scale 0 (no effect) to 10 (complete control)) | Plant response rating (0 to 10; 0 is no effect, 10 is complete control), B. signalgrass ([14]; Rate 250 g/ha, Postemergence) | S. Flatsedge plant response rating [15, 24] | S. Flatsedge plant response rating [15, 25] | S. Flatsedge plant response rating [15, 26] | S. Flatsedge plant response rating [15, 27] | Crabgrass plant response rating [16, 21] | Crabgrass plant response rating [16, 22] | Plant response rating (0 to 10; 0 is no effect, 10 is complete control), Crabgrass ([16]; Rate 250 g/ha, Postemergence)
1: Velvetleaf plant response rating [5, 21] | Velvetleaf plant response rating [5, 22] | Plant response rating (0 to 10; 0 is no effect, 10 is complete control), Velvetleaf ([5]; Rate 250 g/ha, Postemergence) | Giant foxtail plant response rating [6, 23] | Soybean plant response rating [7, 21] | Soybean plant response rating [7, 22] | Morningglory plant response rating [12, 21] | Morningglory plant response rating [12, 22] | Plant response rating (0 to 10; 0 is no effect, 10 is complete control), Morningglory ([12]; Rate 250 g/ha, Postemergence)
6: Crabgrass plant response rating [16, 19] | Plant response rating, Crabgrass [16, 20]
8: Giant foxtail plant response rating (0 to 10 scale) [6, 18]
10: Plant response rating, Giant foxtail [6, 20]
9: Giant foxtail plant response rating [6, 19]
7: Blackgrass plant response rating [1, 23]
3: Plant response rating, Blackgrass [1, 20] | Plant response rating, Velvetleaf [5, 20] | Plant response rating, Wild oats [9, 20] | Morningglory plant response rating [12, 23] | B. signalgrass plant response rating ([14]; Rate 500 g/ha, Postemergence, scale 0 to 10, 0 no effect, 10 complete control) | Crabgrass plant response rating [16, 23]
5: Bedstraw plant response rating [2, 23] | Crabgrass plant response rating (0 to 10 scale) [16, 18]
